Patent US12479791B2, “Cationic lipid” (Takeda Pharmaceutical Company Limited, priority 2018, dated 2025)

Assays:
[1] = tested on: human liver cancer-derived cell line Hep3B stably expressing luciferase; assay: Transfection of cultured cell with siRNA (luciferase knockdown); type: cell-based; conditions: lipid particle containing luciferase siRNA, 48 hours after addition, read-out: siRNA concentration necessary for 50% knockdown
Procedure: A human liver cancer-derived cell line Hep3B stably expressing luciferase was cultured at a cell density of 6000 cells/well in a 96-well plate. 24 hours later, 10 μl of the lipid particle containing luciferase siRNA was added to the medium. 48 hours after the addition of siRNA, the amount of decrease in expression (knockdown) of luciferase was measured using Picagene LT2.0 kit (Toyobo Co., Ltd.).

[2] = Analysis of luciferase siRNA-encapsulated lipid nanoparticle (Production Example 1); type: physicochemical; conditions: for Rate of encapsulation / Average particle size: luc siRNA lipid nanoparticle; for siRNA concentration: luc siRNA lipid nanoparticle dispersion after dialysis and filtration; for Average particle size: cationic lipid:DPPC:cholesterol:GS-020=60:10.6:28:1.4, Z-average, dynamic light scattering
Excerpt: (§1) The particle size of the lipid particle (in the composition) can be measured by a known approach. For example, the particle size can be calculated as a Z-average particle size by the cumulant analysis of an autocorrelation function using a particle size measurement apparatus Zetasizer Nano ZS (Malvern Instruments) based on a dynamic light scattering measurement technique. The particle size (average particle size) of the lipid particle (in the composition) is, for example, 10 to 200 nm, preferably 60 to 170 nm.
(§2) The concentration and rate of encapsulation of the nucleic acid (e.g., siRNA or mRNA) in the composition of the present invention can be measured by a known approach. For example, the nucleic acid is fluorescently labeled using Quant-iT™ RiboGreen® (Invitrogen Corp.), and the fluorescence intensity can be measured to determine the concentration and the rate of encapsulation. The concentration of the nucleic acid in the composition can be calculated using a calibration curve prepared from aqueous nucleic acid solutions having known concentrations. The rate of encapsulation can be calculated on the basis of the difference in fluorescence intensity between the presence and absence of addition of Triton-X 100 (surfactant for disrupting the lipid particle). The concentration of the nucleic acid in the composition refers to the total concentration of a nucleic acid encapsulated in the lipid particle and an unencapsulated nucleic acid. The rate of encapsulation refers to the ratio of the nucleic acid encapsulated in the lipid particle to all nucleic acids in the composition.
A lipid mixture (cationic lipid:DPPC:cholesterol:GS-020=60:10.6:28:1.4, molar ratio) was dissolved in 90% of EtOH and 10% of a 25 mM acetate buffer solution (pH 4.0) to obtain a 7.4 mg/ml lipid solution. Luciferase (luc) siRNA (see Table 2) was dissolved in a 25 mM acetate buffer solution (pH 4.0) to obtain a 0.15 mg/ml nucleic acid solution. The obtained lipid solution and nucleic acid solution were mixed at a flow rate ratio of 1 ml/min:5 ml/min at room temperature using Asia microfluidic system (Syrris Ltd.) to obtain a dispersion containing a composition. The obtained dispersion was dialyzed against water at room temperature for 1 hour and against PBS at room temperature for 18 hours using Slyde-A-Lyzer (molecular weight cutoff: 20 K, Thermo Fischer Scientific Inc.). Subsequently, the dialysate was filtered through a 0.2 μm syringe filter (Iwaki) and preserved at 4° C. Hereinafter, the particle size of the lipid particle in the composition was calculated as a Z-average particle size by the cumulant analysis of an autocorrelation function using a particle size measurement apparatus Zetasizer Nano ZS (Malvern Instruments) based on a dynamic light scattering measurement technique.

[3] = Analysis of Col1a1 siRNA + FVII siRNA-encapsulated lipid nanoparticle (Production Example 3); type: physicochemical; conditions: for Rate of encapsulation / Particle size: Col1a1 siRNA + FVII siRNA lipid nanoparticle; for Particle size: cationic lipid:DPPC:cholesterol:GS-020=60:10.6:28:1.4; for Col1a1 siRNA + FVII siRNA concentration: lipid nanoparticle dispersion after dialysis and filtration
Excerpt: as §1, §2
A lipid mixture (cationic lipid:DPPC:cholesterol:GS-020=60:10.6:28:1.4, molar ratio) was dissolved in 90% of EtOH and 10% of a 25 mM acetate buffer solution (pH 4.0) to obtain a 7.4 mg/ml lipid solution. siRNA against collagen 1a1 (Col1a1) and siRNA against factor VII (FVII) were dissolved in equal weights in a 25 mM acetate buffer solution (pH 4.0) to obtain a 0.15 mg/ml nucleic acid solution. The sequences of Col1a1 siRNA and FVII siRNA were quoted from Hepatology, […], No. 4, 2015, and Silence, Vol. 1, No. 16, 2010, respectively. The obtained lipid solution and nucleic acid solution were mixed at a flow rate ratio of 1 ml/min:5 ml/min using a microfluidic mixing apparatus NanoAssemblr (Precision NanoSystems Inc.) to obtain a dispersion containing a composition. The obtained dispersion was dialyzed against water at room temperature for 1 hour and against PBS at room temperature for 18 hours using Slyde-A-Lyzer (molecular weight cutoff: 20 K, Thermo Fischer Scientific Inc.). Subsequently, the dialysate was filtered through a 0.2 μm syringe filter (Iwaki) and preserved at 4° C. The siRNA-encapsulated lipid nanoparticle was very favorably formed using the compound of the present invention.

Col1a1 gene = assay: Hepatic collagen 1a1 gene knockdown in CCl4 hepatic fibrosis mouse model; type: in vivo; conditions: male Balb/c mouse, Col1a1 siRNA + FVII siRNA 0.1 + 0.1 mg/kg intravenous, liver 4 days after administration, qPCR normalized with GAPDH, vs siRNA non-administration group
Procedure: (§3) The Col1a1 siRNA-encapsulated lipid nanoparticle was administered at 0.1 mg/kg into the orbital plexus of the vein of each 8-week-old male Balb/c mouse. 3 hours later, CCl4 mixed with corn oil was orally administered at a dose of 0.1 mL/kg (10 mL/kg) by forced single-dose administration (n=6 in each group). 4 days after the administration of the siRNA-encapsulated lipid nanoparticle, the liver was collected from the mouse euthanized under anesthesia, followed by gene expression analysis by quantitative PCR. The Col1a1 gene expression level and the FVII gene expression level were normalized with the expression level of GAPDH. The amount of decrease in Col1a1 gene expression as compared with a siRNA non-administration group was regarded as the rate of knockdown. In mice intravenously given the siRNA-encapsulated lipid nanoparticle formed using the compound of the present invention, the knockdown of the activated stellate cell marker gene Col1a1 gene was strongly observed, as compared with the rate of knockdown of the hepatic parenchymal cell marker gene FVII.

[4] = tested on: human colorectal cancer-derived cell line HCT116; assay: Transfection of cultured cell with mRNA (luciferase luminescence); type: cell-based; conditions: 10 ng luciferase mRNA, 24 hours
Procedure: A human colorectal cancer-derived cell line HCT116 was cultured at a cell density of 6000 cells/well in a 96-well plate. 24 hours later, 10 μl of the lipid particle containing 10 ng of luciferase mRNA was added to the medium. 24 hours after the addition of mRNA, a reagent of Picagene LT2.0 kit (Toyobo Co., Ltd.) was added to the culture plate of HCT116. The luminescence (count per sec (cps)) of luciferase was measured using a luminescence plate reader EnVision (PerkinElmer, Inc.).

[5] = Analysis of luciferase mRNA-encapsulated lipid nanoparticle (Production Example 2); type: physicochemical; conditions: for Rate of encapsulation / Average particle size: luciferase mRNA lipid nanoparticle; for mRNA concentration: luciferase mRNA lipid nanoparticle dispersion after dialysis and filtration; for Average particle size: cationic lipid:DPPC:cholesterol:GS-020=60:10.6:28:1.4
Excerpt: as §1, §2
A lipid mixture (cationic lipid:DPPC:cholesterol:GS-020=60:10.6:28:1.4, molar ratio) was dissolved in 90% of EtOH and 10% of water to obtain an 8.5 mg/ml lipid solution. Luciferase mRNA (TriLink BioTechnologies, Inc.) was dissolved in a 10 mM 2-morpholinoethanesulfonic acid (MES) buffer solution (pH 4.0) to obtain a 0.22 mg/ml nucleic acid solution. The obtained lipid solution and nucleic acid solution were mixed at a flow rate ratio of 3 ml/min:6 ml/min at room temperature using NanoAssemblr apparatus (Precision NanoSystems Inc.) to obtain a dispersion containing a composition. The obtained dispersion was dialyzed against water at room temperature for 1 hour and against PBS at 4° C. for 48 hours using Slyde-A-Lyzer (molecular weight cutoff: 20 K, Thermo Fischer Scientific Inc.). Subsequently, the dialysate was filtered through a 0.2 μm syringe filter (Iwaki) and preserved at 4° C.

FVII gene = assay: Hepatic FVII gene knockdown in CCl4 hepatic fibrosis mouse model; type: in vivo; conditions: male Balb/c mouse, Col1a1 siRNA + FVII siRNA 0.1 + 0.1 mg/kg intravenous, liver 4 days after administration, qPCR normalized with GAPDH
Procedure: as §3

Compound	IC50 [1] [µM]	Rate of encapsulation [2] [%]	siRNA concentration [2] [µg/mL]	Average particle size [2] [nm]	Rate of encapsulation [3] [%]	Particle size [3] [nm]	Col1a1 siRNA + FVII siRNA concentration [3] [µg/mL]	Rate of Col1a1 knockdown (Col1a1 gene) [%]	Average luminescence (cps) of 3 wells ([4]; Table 8 (PBS control 1293)) [cps]	Rate of encapsulation [5] [%]	mRNA concentration [5] [µg/mL]	Average particle size [5] [nm]	Rate of FVII knockdown (FVII gene) [%]	Average luminescence (cps) of 3 wells ([4]; Table 9 (PBS control 80)) [cps]
CCCCCCCC(=O)OCC(COC(=O)CCCN(C)C)(COC(=O)C(CCCCCC)CCCCCC)COC(=O)C(CCCCCC)CCCCCC [Example 6, 2-(((4-(Dimethylamino)butanoyl)oxy)methyl)-2-((octanoyloxy)methyl)propane-1,3-diyl bis(2-hexyloctanoate)]	0.041	93	389	77	–	–	–	–	–	–	–	–	–	–
CCCCCCC(=O)OCC(COC(=O)CCCCN(C)C)(COC(=O)C(CCCCC)CCCCC)COC(=O)C(CCCCC)CCCCC [Example 5, 2-(((5-(Dimethylamino)pentanoyl)oxy)methyl)-2-((heptanoyloxy)methyl)propane-1,3-diyl bis(2-pentylheptanoate)]	0.028	96	120	83	–	–	–	–	–	–	–	–	–	–
CCCCCCCC(=O)OCC(COC(=O)CCCCCCC)(COC(=O)CCCCN(C)C)COC(=O)C(CCCCCC)CCCCCC [Example 3, 2-(((5-(Dimethylamino)pentanoyl)oxy)methyl)-2-(((2-hexyloctanoyl)oxy)methyl)propane-1,3-diyl dioctanoate]	0.055	96	445	81	–	–	–	–	–	–	–	–	–	–
CCCCCCCC(=O)OCC(COC(=O)CCCCCCC)(COC(=O)CCCCCN(C)C)COC(=O)CCC(CCCC)C(CCCC)CCCC (stereo not drawn) [Example 11, 3-((6-(Dimethylamino)hexanoyl)oxy)-2,2-bis((octanoyloxy)methyl)propyl 4,5-dibutylnonanoate]	–	–	–	–	97	91	320	77	572560	93	78	122	21	–
CCCCCCC(=O)OCC(COC(=O)CCCN(C)C)(COC(=O)C(CCCCC)CCCCC)COC(=O)C(CCCCC)CCCCC [Example 4, 2-(((4-(Dimethylamino)butanoyl)oxy)methyl)-2-((heptanoyloxy)methyl)propane-1,3-diyl bis(2-pentylheptanoate)]	0.19	91	121	73	–	–	–	–	–	–	–	–	–	–
CCCCCCCC(=O)OCC(COC(=O)CCCCCCC)(COC(=O)CCCN(C)C)COC(=O)C(CCCCCC)CCCCCC [Example 2, 2-(((4-(Dimethylamino)butanoyl)oxy)methyl)-2-(((2-hexyloctanoyl)oxy)methyl)propane-1,3-diyl dioctanoate]	0.014	96	415	71	–	–	–	–	–	–	–	–	–	–
CCCCCCCC(=O)OCC(COC(=O)CCCCN(C)C)(COC(=O)C(CCCCCC)CCCCCC)COC(=O)C(CCCCCC)CCCCCC [Example 7, 2-(((5-(Dimethylamino)pentanoyl)oxy)methyl)-2-((octanoyloxy)methyl)propane-1,3-diyl bis(2-hexyloctanoate)]	0.0012	97	376	73	–	–	–	–	–	–	–	–	–	–
CCCCCCCC(=O)OCC(COC(=O)CCCCCCC)(COC(=O)CCCCN(C)C)COC(=O)CCC(CCCCC)C(CCCCC)CCCCC (stereo not drawn) [Example 13, 3-((5-(Dimethylamino)pentanoyl)oxy)-2,2-bis((octanoyloxy)methyl)propyl 4,5-dipentyldecanoate]	–	–	–	–	97	103	122	86	–	99	155	119	15	269467
